Measurements as given in PubChem BioAssay AID330 (DTP/NCI, 2004).
“And” between values parts separate entries of the source, which are not always exact repeats. Identical values can stand only once. Inconclusive results and toxic doses are left out. How the source made its calls: active means survival T/C of 150% or more; inactive means T/C below 125% in these data.

Tested on: P388 leukemia ip, CD2F1 mice, survival T/C
Test: NCI In Vivo Anticancer Drug Screen. Data for tumor model P388 Leukemia (intraperitoneal) in CD2F1 (CDF1) mice
Conditions: endpoint: median survival time, higher = longer survival
Summary of the method: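 Mice carrying the transplanted tumor received test compound or vehicle. Survival was recorded in each group, and the value is the treated-group measurement divided by that of the vehicle-treated control group.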

[1] = dose: 50.0 mg/kg/injection, schedule: Q01DX009 (ip), vehicle: saline with Tween-80
[2] = dose: 100.0 mg/kg/injection, schedule: Q01DX009 (ip), vehicle: saline with Tween-80
[3] = dose: 200.0 mg/kg/injection, schedule: Q01DX009 (ip), vehicle: saline with Tween-80
[4] = dose: 60.0 mg/kg/injection, schedule: Q01DX005 (ip), vehicle: Klucel (hydroxypropylcellulose) (HPC)
[5] = dose: 120.0 mg/kg/injection, schedule: Q01DX005 (ip), vehicle: Klucel (hydroxypropylcellulose) (HPC)
[6] = dose: 50.0 mg/kg/injection, schedule: Q01DX009 (ip), vehicle: saline
[7] = dose: 100.0 mg/kg/injection, schedule: Q01DX009 (ip), vehicle: saline
[8] = dose: 200.0 mg/kg/injection, schedule: Q01DX009 (ip), vehicle: saline
[9] = dose: 50.0 mg/kg/injection, schedule: Q01DX005 (ip), vehicle: Klucel (hydroxypropylcellulose) (HPC)
[10] = dose: 100.0 mg/kg/injection, schedule: Q01DX005 (ip), vehicle: Klucel (hydroxypropylcellulose) (HPC)
[11] = dose: 200.0 mg/kg/injection, schedule: Q01DX005 (ip), vehicle: Klucel (hydroxypropylcellulose) (HPC)
[12] = dose: 25.0 mg/kg/injection, schedule: Q01DX009 (ip), vehicle: saline
[13] = dose: 25.0 mg/kg/injection, schedule: Q01DX009 (ip), vehicle: saline with Tween-80
[14] = dose: 60.0 mg/kg/injection, schedule: Q01DX005 (ip), vehicle: saline with Tween-80
[15] = dose: 120.0 mg/kg/injection, schedule: Q01DX005 (ip), vehicle: saline with Tween-80
[16] = dose: 240.0 mg/kg/injection, schedule: Q01DX005 (ip), vehicle: saline with Tween-80
[17] = dose: 12.5 mg/kg/injection, schedule: Q01DX009 (ip), vehicle: saline
[18] = dose: 50.0 mg/kg/injection, schedule: Q01DX005 (ip), vehicle: saline with Tween-80
[19] = dose: 100.0 mg/kg/injection, schedule: Q01DX005 (ip), vehicle: saline with Tween-80
[20] = dose: 200.0 mg/kg/injection, schedule: Q01DX005 (ip), vehicle: saline with Tween-80
[21] = dose: 25.0 mg/kg/injection, schedule: Q01DX005 (ip), vehicle: saline with Tween-80

Measured: T/C

CN1C(=O)C=CC1=O
inactive: dose: 0.5 mg/kg/injection, schedule: Q01DX009 (ip), vehicle: saline 96 % of control | dose: 1.0 mg/kg/injection, schedule: Q01DX009 (ip), vehicle: saline 103 % of control | dose: 2.0 mg/kg/injection, schedule: Q01DX009 (ip), vehicle: saline 100 % of control | dose: 4.0 mg/kg/injection, schedule: Q01DX009 (ip), vehicle: saline 101 % of control

CN(C)c1nc(O)cc(=O)[nH]1
inactive: [1] 106 % of control | [2] 100 % of control | [3] 89 % of control

O=[N+]([O-])c1ccc(Cl)cc1C(Nc1nncs1)Nc1nncs1
inactive: [4] 107 % of control | [5] 106 % of control

CC12CCCN1CC=C2CO (stereo not given)
inactive: dose: 25.0 mg/kg/injection, schedule: Q01DX001 (ip), vehicle: saline with Tween-80 100 % of control | dose: 50.0 mg/kg/injection, schedule: Q01DX001 (ip), vehicle: saline with Tween-80 96 % of control | dose: 100.0 mg/kg/injection, schedule: Q01DX001 (ip), vehicle: saline with Tween-80 100 % of control

CNC(=S)Sc1c(Cl)c(Cl)c(Cl)c(Cl)c1Cl
inactive: dose: 50.0 mg/kg/injection, schedule: Q01DX009 (ip), vehicle: Klucel (hydroxypropylcellulose) (HPC) 108 % of control | dose: 100.0 mg/kg/injection, schedule: Q01DX009 (ip), vehicle: Klucel (hydroxypropylcellulose) (HPC) 108 % of control | dose: 200.0 mg/kg/injection, schedule: Q01DX009 (ip), vehicle: Klucel (hydroxypropylcellulose) (HPC) 99 % of control

C[N+]1(C)CCC(Cc2ccccc2)CC1
inactive: dose: 6.25 mg/kg/injection, schedule: Q01DX005 (ip), vehicle: saline 101 % of control | dose: 12.5 mg/kg/injection, schedule: Q01DX005 (ip), vehicle: saline 92 % of control

COc1cc2cnc(-c3ccccn3)c(O)c2cc1OC
inactive: [6] 100 % of control | [7] 90 % of control | [8] 94 % of control

CCC(c1ccc(Cl)cc1)C(C#N)c1ccccc1 (stereo not given)
inactive: dose: 100.0 mg/kg/injection, schedule: Q04DX003 (ip), vehicle: saline with Tween-80 100 % of control | dose: 200.0 mg/kg/injection, schedule: Q04DX003 (ip), vehicle: saline with Tween-80 97 % of control | dose: 400.0 mg/kg/injection, schedule: Q04DX003 (ip), vehicle: saline with Tween-80 100 % of control

CCOC(=O)N1CCc2cc(OC)c(OC)cc2/C1=C/c1ccsc1
inactive: [9] 105 % of control | [10] 102 % of control | [11] 96 % of control

CC1=CC(=O)C(O)C2(C)C1CC1OC(=O)C=C3C(C)(C4OC(=O)CC4CO)CC(O)C2C31C (stereo not given)
inactive: dose: 2.5 mg/kg/injection, schedule: Q01DX009 (ip), vehicle: saline + alcohol 92 % of control | dose: 5.0 mg/kg/injection, schedule: Q01DX009 (ip), vehicle: saline + alcohol 98 % of control | dose: 10.0 mg/kg/injection, schedule: Q01DX009 (ip), vehicle: saline + alcohol 108 % of control | dose: 20.0 mg/kg/injection, schedule: Q01DX009 (ip), vehicle: saline + alcohol 101 % of control

Clc1nc2ccccc2[nH]1
inactive: [12] 101 % of control | [6] 99 % of control | [7] 95 % of control | [8] 98 % of control

Cc1ccccc1-c1nc2cc(Cl)ccc2c(=O)o1
inactive: [13] 105 % of control | [1] 110 % of control | [2] 110 % of control

N=C(N)Sc1cc(O)ccc1O
inactive: dose: 75.0 mg/kg/injection, schedule: Q01DX009 (ip), vehicle: saline with Tween-80 118 % of control | dose: 150.0 mg/kg/injection, schedule: Q01DX009 (ip), vehicle: saline with Tween-80 113 % of control

NC(=O)C12CCCCC1CCC(=O)C2 (stereo not given)
inactive: dose: 2.5 mg/kg/injection, schedule: Q01DX009 (ip), vehicle: saline 100 % of control | dose: 5.0 mg/kg/injection, schedule: Q01DX009 (ip), vehicle: saline 100 % of control | dose: 10.0 mg/kg/injection, schedule: Q01DX009 (ip), vehicle: saline 100 % of control

CNC1C(O)C(OC2C(N)CC(N)C(OC3OC(C(C)O)C(O)C(O)C3N)C2O)OCC1(C)O (stereo not given)
inactive: dose: 7.5 mg/kg/injection, schedule: Q01DX005 (ip), vehicle: saline 108 % of control | dose: 15.0 mg/kg/injection, schedule: Q01DX005 (ip), vehicle: saline 107 % of control | dose: 30.0 mg/kg/injection, schedule: Q01DX005 (ip), vehicle: saline 101 % of control

COc1ccc(C2CC(CO)ON2c2ccccc2)cc1 (stereo not given)
inactive: [14] 98 % of control | [15] 98 % of control | [16] 99 % of control

N#CC1=C(C#N)Sc2nc3cc(Cl)ccc3nc2S1
inactive: dose: 6.25 mg/kg/injection, schedule: Q01DX009 (ip), vehicle: saline 109 % of control | [17] 115 % of control and 95 % of control | [12] 108 % of control | [6] 115 % of control

Cc1nc(C(=O)c2ccccc2)cnc1-c1ccccc1
inactive: [4] 92 % of control | [5] 88 % of control | dose: 240.0 mg/kg/injection, schedule: Q01DX005 (ip), vehicle: Klucel (hydroxypropylcellulose) (HPC) 91 % of control

CC1=NN(c2ccc(S(=O)(=O)O)cc2)C(=O)C1N=Nc1ccc(-c2ccc(N=Nc3ccc(O)c(C(=O)O)c3)c(C)c2)cc1C (stereo not given)
inactive: dose: 6.25 mg/kg/injection, schedule: Q01DX009 (ip), vehicle: saline with Tween-80 100 % of control and 91 % of control | dose: 12.5 mg/kg/injection, schedule: Q01DX009 (ip), vehicle: saline with Tween-80 99 % of control and 106 % of control and 113 % of control | [13] 100 % of control and 120 % of control and 91 % of control

COc1cc2cnc(-c3ccc(Cl)c(Cl)c3)cc2cc1OC
inactive: [12] 100 % of control | [6] 97 % of control | [7] 89 % of control

CN1c2cccc[c]2[Sn]([CH3])([CH3])[c]2ccccc21
inactive: dose: 30.0 mg/kg/injection, schedule: Q01DX005 (ip), vehicle: saline with Tween-80 115 % of control | [14] 113 % of control and 123 % of control | [15] 124 % of control

C=CCOc1ccccc1/C=N/[N+](C)(C)C
inactive: [17] 100 % of control | [12] 110 % of control

O=Cc1c(-c2ccc(Cl)cc2)nc2n1CCS2
inactive: dose: 100.0 mg/kg/injection, schedule: Q04DX002 (ip), vehicle: Klucel (hydroxypropylcellulose) (HPC) 101 % of control | dose: 400.0 mg/kg/injection, schedule: Q04DX002 (ip), vehicle: Klucel (hydroxypropylcellulose) (HPC) 104 % of control

NS(=O)(=O)c1c[n+]([O-])ccc1Cl
inactive: [1] 100 % of control | [2] 100 % of control | [3] 100 % of control

O=[N+]([O-])c1cc(NC(=S)SCc2ccccc2)ccc1Cl
inactive: [6] 108 % of control | dose: 50.0 mg/kg/injection, schedule: Q01DX009 (ip), vehicle: suspension in saline 92 % of control | [7] 115 % of control | [8] 108 % of control | dose: 200.0 mg/kg/injection, schedule: Q01DX009 (ip), vehicle: suspension in saline 92 % of control

CC1CC2(CC(CN(C3CCCCC3)C3CCCCC3)OC2=O)C(=O)O1 (stereo not given)
inactive: [18] 104 % of control | [19] 102 % of control | [20] 96 % of control

c1ccc(-n2nc3c(c2-c2cccnc2)Cc2ccccc2-3)cc1
inactive: [18] 101 % of control | [19] 100 % of control | [20] 98 % of control

COc1cc(CC(CC(=O)O)C(=O)O)cc(OC)c1OC (stereo not given)
inactive: [9] 97 % of control | [10] 88 % of control | [11] 97 % of control

Oc1ccc(N=C2N=c3c(c4ccccc4c4ccccc34)=N2)c2ccccc12
inactive: [21] 98 % of control | [18] 100 % of control | [19] 100 % of control | [20] 107 % of control

Cc1ccc2c(c1)C(=O)c1cc3c(cc1C2=O)OCO3
inactive: [14] 87 % of control | [15] 91 % of control | [16] 89 % of control and 91 % of control

COC(=O)c1c(COC(=O)NC(C)C)c2n(c1C)CS(=O)(=O)C2
inactive: dose: 12.5 mg/kg/injection, schedule: Q01DX005 (ip), vehicle: saline with Tween-80 96 % of control | [21] 95 % of control | [18] 92 % of control

COc1cc(C)c(C)cc1C1(c2cc(C)c(C)cc2O)C(=O)c2ccccc2C1=O
inactive: [6] 100 % of control | [7] 93 % of control

CNC(=O)N1CC2CCC(C)(C1)OC2(C)C (stereo not given)
inactive: [9] 97 % of control | [10] 100 % of control and 103 % of control | [11] 103 % of control and 106 % of control
